Experimental data: patent US8288431B2, “Substituted spiroindolinones” (Hoffmann-La Roche Inc., priority 2010, dated 2012)

Target: interaction between p53 and MDM2 proteins (recombinant GST-tagged MDM2, biotinylated p53 peptide) (Homo sapiens, UniProt Q00987)
Experiment: HTRF (homogeneous time-resolved fluorescence) assay of p53-MDM2 interaction
Assay type: binding
Conditions: bsa 0.02%
Procedure: The ability of the compounds to inhibit the interaction between p53 and MDM2 proteins was measured by an HTRF (homogeneous time-resolved fluorescence) assay in which recombinant GST-tagged MDM2 binds to a peptide that resembles the MDM2-interacting region of p53 (Lane et al.). Binding of GST-MDM2 protein and p53-peptide (biotinylated on its N-terminal end) is registered by the FRET (fluorescence resonance energy transfer) between Europium (Eu)-labeled anti-GST antibody and streptavidin-conjugated Allophycocyanin (APC).
Add 10 uL diluted compounds (1:5 dilution in reaction buffer) to each well, mix by shaking. Add 20 uL biotinylated p53 peptide (180 nM working solution) in reaction buffer to each well and mix on shaker. Incubate at 37° C. for 1 h. Add 20 uL streptavidin-APC and Eu-anti-GST antibody mixture (6 nM Eu-anti-GST and 60 nM streptavidin-APC working solution) in TBS buffer with 0.2% BSA, shake at room temperature for 30 minutes and read using a TRF-capable plate reader at
665 and 615 nm (Victor 5, Perkin ElmerWallac). If not specified, the reagents were purchased from Sigma Chemical Co.

Chain of interaction between p53 and MDM2 proteins (recombinant GST-tagged MDM2, biotinylated p53 peptide) (Q00987 whole entry): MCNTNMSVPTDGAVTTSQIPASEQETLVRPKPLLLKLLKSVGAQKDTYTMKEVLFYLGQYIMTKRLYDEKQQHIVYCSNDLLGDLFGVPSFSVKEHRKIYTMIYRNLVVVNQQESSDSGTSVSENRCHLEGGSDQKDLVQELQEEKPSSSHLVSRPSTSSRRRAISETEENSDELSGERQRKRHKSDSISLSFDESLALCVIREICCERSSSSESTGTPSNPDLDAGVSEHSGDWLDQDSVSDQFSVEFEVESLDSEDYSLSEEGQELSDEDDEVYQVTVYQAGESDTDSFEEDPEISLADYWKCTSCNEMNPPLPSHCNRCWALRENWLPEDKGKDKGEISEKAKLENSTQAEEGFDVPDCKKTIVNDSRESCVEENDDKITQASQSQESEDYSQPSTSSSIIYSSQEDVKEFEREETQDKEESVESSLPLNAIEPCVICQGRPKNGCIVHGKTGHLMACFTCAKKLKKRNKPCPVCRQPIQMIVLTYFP

Row | SMILES | IC50 [nM]
1 | CC(C)(CO)C[C@@H]1CN(C(=O)NCC[C@H](O)CO)[C@H](c2cccc(Cl)c2F)[C@]12C(=O)Nc1cc(Cl)ccc12 (mixture of isomers) [Example 33, rac-(2′S,3′S,4′S)-6-chloro-2′-(3-chloro-2-fluoro-phenyl)-4′-(3-hydroxy-2,2-dimethyl-propyl)-2-oxo-1,2-dihydro-spiro[indole-3,3′-pyrrolidine]-1′-carboxylic acid ((S)-3,4-dihydroxy-butyl)-amide] | 725
2 | CC(C)(C)C[C@@H]1CN(C(=O)OCc2ccc(C(=O)O)cc2)[C@H](c2cccc(Cl)c2F)[C@]12C(=O)Nc1cc(Cl)ccc12 (racemic) [Example 49, rac-(2′S,3′S,4′S)-6-chloro-2′-(3-chloro-2-fluoro-phenyl)-4′-(2,2-dimethyl-propyl)-2-oxo-1,2-dihydro-spiro[indole-3,3′-pyrrolidine]-1′-carboxylic acid 4-carboxy-benzyl ester] | 178

More lines, in order of falling IC50, values ahead:

Row | IC50 [nM] | SMILES
3 | 773 | CC(C)(C)C[C@@H]1CN[C@H](c2cccc(Cl)c2F)[C@]12C(=O)Nc1cc(Cl)ccc12 (racemic) [Example 6, rac-(2′S,3′S,4′S)-6-chloro-2′-(3-chloro-2-fluoro-phenyl)-4′-(2,2-dimethyl-propyl)-1H-spiro[indole-3,3′-pyrrolidin]-2-one]
4 | 581 | COC(=O)c1ccc(NC(=O)N2C[C@@H](CC(C)(C)C)[C@@]3(C(=O)Nc4cc(Cl)ccc43)[C@H]2c2cccc(Cl)c2F)cc1 (racemic) [Example 12, rac-4-{[(2′S,3′S,4′S)-6-chloro-2′-(3-chloro-2-fluoro-phenyl)-4′-(2,2-dimethyl-propyl)-2-oxo-1,2-dihydro-spiro[indole-3,3′-pyrrolidin]e-1′-carbonyl]-amino}-benzoic acid methyl ester]
5 | 133 | CC(C)(C)C[C@@H]1CN(C(=O)NC2CCN(S(C)(=O)=O)CC2)[C@H](c2cccc(Cl)c2F)[C@]12C(=O)Nc1cc(Cl)ccc12 [Example 28, chiral (2′S,3′S,4′S)-6-chloro-2′-(3-chloro-2-fluoro-phenyl)-4′-(2,2-dimethyl-propyl)-2-oxo-1,2-dihydro-spiro[indole-3,3′-pyrrolidine]-1′-carboxylic acid (1-methanesulfonyl-piperidin-4-yl)-amide]
